Literature values, collected in patent US20090202609A1, “MEDICAL DEVICE WITH COATING COMPOSITION” (priority 2008, published 2009).

What was measured:
bacteria = settings: effective systemic concentration
[1] = systemic

In the case of NC[C@H]1O[C@H](O[C@H]2[C@H](O)[C@@H](O[C@H]3O[C@H](CO)[C@@H](O)[C@H](N)[C@H]3O)[C@H](N)C[C@@H]2N)[C@H](N)C[C@@H]1O [tobramycin], the “effective concentration to actively control bacteria” value (bacteria) is listed as at most 4 µg/mL and the system-wide toxic concentration [1] is listed as “about 400 mcg/ml”.
